Patent US20220249457A1, “METHOD OF MODULATING RIBONUCLEOTIDE REDUCTASE” (CASE WESTERN RESERVE UNIVERSITY, priority 2019, published 2022)

biological target: T1, hRRM1 (Homo sapiens, UniProt P23921); assay: hRRM1 enzyme activity inhibition (RR radioactivity assay, boronate chromatography); type: biochemical; parameters: key: Compounds which are found to have extremely high potency are classified as “****”; Compounds which are found to have very high potency of protein synthesis are classified as “***”; conditions: potency ranking by minimum concentration required to inhibit enzyme activity; six concentrations 1-100 μM incubated with hRRM1 30 minutes, diluted by a factor of 5
T1 construct: made in house; host or cells: E. coli BL21 DE3 (RIL)
T1 sequence (P23921 1-792): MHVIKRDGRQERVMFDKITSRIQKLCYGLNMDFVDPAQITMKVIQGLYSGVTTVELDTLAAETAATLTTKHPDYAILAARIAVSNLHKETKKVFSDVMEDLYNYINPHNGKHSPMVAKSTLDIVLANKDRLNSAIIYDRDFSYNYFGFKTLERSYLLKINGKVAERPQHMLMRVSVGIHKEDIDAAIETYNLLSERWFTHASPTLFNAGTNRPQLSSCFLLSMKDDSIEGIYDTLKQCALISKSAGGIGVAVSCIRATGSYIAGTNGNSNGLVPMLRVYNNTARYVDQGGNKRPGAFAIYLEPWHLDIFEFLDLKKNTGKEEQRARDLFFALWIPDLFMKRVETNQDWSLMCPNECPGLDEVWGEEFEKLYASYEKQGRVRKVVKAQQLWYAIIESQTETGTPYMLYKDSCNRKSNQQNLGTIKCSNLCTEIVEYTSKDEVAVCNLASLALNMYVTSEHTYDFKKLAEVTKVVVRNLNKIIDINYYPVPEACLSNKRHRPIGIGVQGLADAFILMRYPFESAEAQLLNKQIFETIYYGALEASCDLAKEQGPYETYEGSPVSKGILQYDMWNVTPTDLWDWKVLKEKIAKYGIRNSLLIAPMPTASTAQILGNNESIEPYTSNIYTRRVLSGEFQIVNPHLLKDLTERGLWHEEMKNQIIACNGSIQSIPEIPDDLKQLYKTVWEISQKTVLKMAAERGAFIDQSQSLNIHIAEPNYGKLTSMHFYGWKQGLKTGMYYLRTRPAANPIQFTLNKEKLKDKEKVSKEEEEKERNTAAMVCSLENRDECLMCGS
Experimental: Activity measurements in Table 2 is performed as described below. Briefly, six concentrations of the compounds ranging from 1-100 μM of the compounds are incubated on ice with 2.5 μmol of hRRM1 for 30 minutes. The assay sample was then diluted by a factor of 5, and enzyme activity was assayed in triplicate. […] Activity measurements are based on the qualitative relation between the minimum concentration of compound required to produce inhibit enzyme activity. Potency activities are ranked as either extremely high, very high or significant. These activities are used to determine the activity ranking. Compounds which are found to have extremely high potency are classified as “****” Compounds which are found to have very high potency […] are classified as “***”. Compounds which are found to have significant potency are classified as
In assay buffer, six concentrations of the compounds ranging from 1-100 μM of the compounds are incubated on ice with 2.5 μmol of hRRM1 for 30 minutes. The assay sample was then diluted by a factor of 5, and enzyme activity was assayed in triplicate.
The IC50 are determined using, boronate chromatography. Six concentrations of the RRmod are studied ranging from 1-100 μM. The assay is repeated in triplicate. Data are fitted in GraphPad Prism 6.05 using a sigmoidal dose-response curve.

SMILES	Activity
COc1ccc(Br)c(-c2nnc(-c3ccccc3O)o2)c1O	***
COc1ccc(-c2ccsc2)c(-c2nnc(-c3ccccc3O)o2)c1O	***
Oc1ccccc1-c1nc(-c2ccccc2Br)no1	****
COc1ccc(-c2ccccc2)c(-c2nnc(-c3ccccc3O)o2)c1O	***
Oc1ccccc1-c1cnc(-c2ccccc2O)s1	***
Oc1ccccc1-c1noc(-c2cccnc2)n1	****
c1cncc(-c2noc(-c3cnc4ccccc4c3)n2)c1	***
Oc1ccccc1-c1nc(-c2ccccc2OCc2ccccc2)no1	***
Oc1ccccc1-c1c[nH]c(-c2ccccc2O)n1	***
Oc1ccc(Br)cc1-c1nnc(-c2cccnc2)o1	***

Continued, values first:

Activity	SMILES
***	Oc1ccccc1-c1nnc(-c2ccccc2O)o1
***	Oc1ccccc1-c1nnc(-c2cc(-c3ccccc3)ccc2O)o1
***	Oc1ccccc1-c1nc(-c2ccccc2-c2ccccc2)no1
***	Oc1ccccc1-c1nc(-c2ccccc2-c2ccsc2)no1
***	COc1ccc(-c2cnc(-c3ccccc3O)s2)cc1
***	Oc1ccccc1-c1noc(-c2cccs2)n1
****	Oc1ccccc1-c1nc(-c2cccnc2)no1
****	c1cncc(-c2noc(-c3cccnc3)n2)c1
***	c1cncc(-c2noc(-c3ccco3)n2)c1
***	c1cncc(-c2noc(-c3cccs3)n2)c1
***	COc1ccccc1-c1noc(-c2ccccc2O)n1
****	COc1ccccc1-c1nc(-c2ccccc2O)no1
***	Oc1ccccc1-c1cn(-c2ccccc2O)nn1
***	Oc1ccccc1-c1nnn(-c2ccccc2O)n1

test system: normal mobilized peripheral blood progenitor cells; assay: not given; conditions: previously characterized; cited from earlier work

SMILES	cytotoxicity
O=C(NN=Cc1c(O)ccc2ccccc12)c1ccccc1O [NSAAH, Naphthyl Salicyl Acyl Hydrazone]	little measurable cytotoxicity

biological target: T2, hRRM1 hexamers (Homo sapiens, UniProt P23921); assay: not given; conditions: cited from earlier work
T2 sequence (P23921 1-792): T1 sequence (P23921 1-792)

SMILES	binding affinity
Nc1nc(Cl)nc2c1ncn2[C@@H]1O[C@H](CO)[C@@H](O)[C@@H]1F [clofarabine, 2′-fluro-2′-deoxyarabinofuranosyl-2-chloroadenine]	nanomolar affinity
